Reference: PMC10518717, “High-Throughput Screening and Proteomic Characterization of Compounds Targeting Myeloid-Derived Suppressor Cells” (Molecular & Cellular Proteomics : MCP, 2023)
Like-named read-outs stand apart in the source and are kept apart here.

System: NUP-MDSC
Test: Secondary mouse MDSC screen (dose-dependent; IFNγ secretion and T cell proliferation)
Assay type: cell-based
Conditions: for EC50: Mus musculus, NUP-MDSC/CD8+ T cell coculture; for activity in the NUP-MDSC assay (proliferation and INFγ secretion of mouse CD8+ T cells): dose-dependent confirmation screen
Procedure: Compound source plates (REMP-PP#180030) were pre-prepared by adding 500 nl compound solution (5 mmol/l starting concentration) and 11.5 μl Hepes (20 mmol/l) buffer to achieve a final ready to screen concentration of 0.2 mmol/l. Cocultured cell assay plates were prepared by dispensing 20 μl of differentiated MDSC cells (12,500 cells/cavity) and 20 μl of CD8+ T-cells with a MultidropCombi (12,500 cells/cavity). In the next step, 2 μl of pre-prepared compound solution was transferred via BC i5 to the cell plate followed by 3days incubation at 37 °C and 5% CO2. Afterward, the supernatant in cell plates were homogenized via orbital shaking at 2000 rpm for 20s and centrifugated with 1650 rpm for 30 s. On a BC i5 pipetting robot, 2 μl supernatant were transferred to a pre-filled (30 μl PBS) assay plate followed by centrifugation and addition of 8 μl IFNγ HTRF detection kit, followed by orbital mixing at 2000 rpm for 20s and an incubation step for 3 days at 37 °C and 5% CO2. Assay plate was analyzed on an PE Envision. Cell plates were centrifuged in parallel with 300g for 60 s and orbital mixed at 2000 rpm for 20 s followed by proliferation analysis via Sartorius IQue2. Effects were normalized against stimulator control mIL-2 and 0.2% dimethyl sulfoxide (DMSO) as neutral control. A hit was defined as a compound with >50% effect in at least one of the measured effects.
Compound source plates (REMP-PP#180030) for dose-dependent secondary screens were pre-prepared by adding […] compound solution (1.0E + 01 mmol/l, 3.2E + 00 mmol/l, 1.0E + 00 mmol/l, 3.2E-01 mmol/l, 1.0E-01 mmol/l, 3.2E-02 mmol/l, 1.0E-02 mmol/l, 3.2E-03 mmol/l, 1.0E-03 mmol/l, 3.2E-04 mmol/l; starting concentration) and 12 μl Hepes (20 mM) buffer to achieve a final ready to screen concentration of 4.0E-02 mmol/l, 1.3E-02 mmol/l, 4.0E-03 mmol/l, 1.3E-03 mmol/l, 4.0E-04 mmol/l, 1.3E-04 mmol/l, 4.0E-05 mmol/l, 1.3E-05 mmol/l, 4.0E-06 mmol/l, and 1.3E-06 mmol/l. All other steps are identical to the described workflow under “Primary mouse MDSC screen”.
After confirming the physiological and pharmacological suitability of the NUP-MDSC model, we developed a high-throughput screen for the identification of potential MDSC modulators (Fig. 4A and supplemental Fig. S3). To accomplish this, mouse NUP-MDSC were generated as described before, co-cultured with freshly isolated mouse CD8+ T cells, which were activated with anti-CD3/anti-CD28 antibodies, and subsequently treated with compounds or DMSO vehicle (supplemental Fig. S4A). After 72 h, T cell activity was assessed by recording T cell proliferation and IFN-γ secretion. […] Compounds were declared hits if reversing the suppression effect of NUP-MDSC on T cells with ≥50% in either readout resulting in 392 hit compounds (Fig. 4B). […]

SMILES	EC50 (Fig. 4D, read-out: T cell proliferation EC50) [µM]	EC50 (read-out: EC50, based on INFγ secretion of secondary mouse screen) [µM]	activity in the NUP-MDSC assay (proliferation and INFγ secretion of mouse CD8+ T cells)
CCOC(=O)c1nnn(-c2nn3nnnc3c3ccccc23)c1C [compound 2]	6.5	2.6	rescued the proliferation and INFγ secretion
c1ccc2c(c1)c(-n1ccnc1)nn1nnnc21 [compound 3]			inactive
